Earlier results on two molecules are cited in patent US12644083B2, “Dual circulation microphysiological system” (CN Bio Innovations Limited, priority 2019, dated 2026).

The structures appear in SMILES notation.

The subject of this data set is primary human hepatocytes. The note with it: for rate of metabolism (in words): general statement: considered to be slowly metabolised; for test phase required to give measurable changes (metabolism): single loop 3D liver scaffold system.

For `CC(C)N(CCC(C(N)=O)(c1ccccc1)c1ccccn1)C(C)C` (stereo not shown) [disopyramide], the “rate of metabolism (in words)” value is reported as “slowly metabolised” and the “test phase required to give measurable changes (metabolism)” value was 5 days.

For `CC(C)(C)NC[C@H](O)COc1nsnc1N1CCOCC1` [timolol], the “rate of metabolism (in words)” value is “slowly metabolised” and the “test phase required to give measurable changes (metabolism)” value is 5 days.
